# In US20250136606A1, “MODULATORS OF TRPML, THEIR COMPOSITIONS AND METHODS OF USE” (Caraway Therapeutics, Inc., priority 2021, published 2025):
# Like-named read-outs stand apart in the source and are kept apart here.
# Columns and labels:
# Assay type in all cases: cell-based
# [1] = molecular target: TRPML1 (Homo sapiens, UniProt Q9GZU1); test: Fluorescent TRPML1 assay (Fluo4-AM calcium fluorescence in doxycycline-induced HEK-293 Trex cells)
# Procedure, shortened: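 First, expression of surface-targeted mutant human TRPML1 is induced in HEK-293 Trex cells with 0.5 ug/mL doxycycline the day before. Next, cells take up 1 micromolar Fluo4-AM in Ringer's with 0.1% Pluronic. Finally, they are added to compounds (6 nanomolar–20 micromolar final) in 10 mM calcium Ringer's and fluorescence is read.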
# [2] = molecular target: T1, TRPML2 (Homo sapiens, UniProt Q8IZK6); test: Fluorescent TRPML2 assay (performed as for TRPML1, substituting the TRPML2 subtype)
# T1 construct: expressed in transfected cells
# T1 sequence (Q8IZK6 1-566): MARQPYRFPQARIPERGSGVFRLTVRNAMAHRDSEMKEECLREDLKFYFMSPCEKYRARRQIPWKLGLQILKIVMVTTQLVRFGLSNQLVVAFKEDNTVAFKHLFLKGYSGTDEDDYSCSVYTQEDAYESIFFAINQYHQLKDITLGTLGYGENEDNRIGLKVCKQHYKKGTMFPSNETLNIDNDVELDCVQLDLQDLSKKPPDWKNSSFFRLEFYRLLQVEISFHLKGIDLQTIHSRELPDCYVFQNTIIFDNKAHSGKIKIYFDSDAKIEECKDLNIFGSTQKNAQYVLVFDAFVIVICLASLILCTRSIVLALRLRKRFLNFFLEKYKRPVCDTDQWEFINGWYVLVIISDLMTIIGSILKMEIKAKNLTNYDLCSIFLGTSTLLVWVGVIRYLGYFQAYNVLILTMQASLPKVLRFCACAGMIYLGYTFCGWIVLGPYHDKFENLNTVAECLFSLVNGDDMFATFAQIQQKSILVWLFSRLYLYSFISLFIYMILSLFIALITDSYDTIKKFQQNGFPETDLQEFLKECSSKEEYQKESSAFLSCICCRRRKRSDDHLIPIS
# Description: (§1) HEK-293 Trex cells were stably transfected with a construct consisting of the human coding sequence for TRPML1 cloned into the […] plasmid pCDNA5 T/O. Mutations were introduced into the TRPML1 sequence to facilitate expression on the cell surface (Silvia Vergarajauregui, Rosa Puertollano, Traffic. 2006 March; 7(3): 337-353). Briefly, the cells are cultured in 150 mm round tissue culture dishes containing 20 mL of media. The day before the assay the cells are rinsed with DPBS-Ca—Mg and then treated briefly with Trypsin-EDTA. The Trypsin-EDTA is diluted with growth media, and cells are counted. 38×10^6 cells are re-plated into 150 mm round tissue culture dishes in media containing 0.5 ug/mL doxycycline to induce expression of hTRPML1.
# (§2) The day of the experiment cells are lifted from the plates as above and collected by centrifugation. The cells are then suspended in dye loading buffer consisting of Ringer's solution supplemented with 0.1% Pluronic Acid and 1 micromolar Fluo4-AM dye. Cells are loaded for ˜60 minutes in the dark with occasional mixing. The cells are collected by centrifugation, the loading media aspirated, and the cells resuspended in 25 mL Ringer's solution and incubated ˜60 minutes in the dark. The cells are again collected by centrifugation, rinsed in Ringer's Solution and resuspended to […] in modified Ringer's solution containing 10 mM calcium.
# (§3) Compounds are dissolved to a concentration of 10 millimolar with DMSO. Compound plates are created by dispensing compounds into 384 well black wall clear bottom plates (Greiner 781091). Positive and negative controls are included on each plate. Typically, different amounts of each compound are tested ranging from 100 nanoMoles (20 micromolar final concentration) decreasing in half-log steps to 31 picoMoles (6 nanomolar final concentration). Each concentration is typically tested in triplicate.
# (§4) 50 microliters of dye-loaded cells are dispensed into each well of the compound assay plate created above. The fluorescence in each well is then determined with an excitation wavelength of 480 nm and an emission wavelength of 540 nm using either a Molecular Devices SpectraMax multimode plate reader or a Hamamatsu FDSS/uCell plate imager.
# (§5) The resulting fluorescence for each well is exported as an ascii file and loaded into our LIMS for analysis. The percent activity of each compound at each concentration is determined by comparison to the positive and negative control wells included in each plate.
# (§6) TRPML2 and TRPML3 Assays Assays for TRPML2 and TRPML3 were performed as above for TRPML1, by substituting the appropriate TRPML2 or TRPML3 subtype for the TRPML1.
# (§7) EC50 values were calculated using a non-linear regression of Prism. In the table, “A” indicates an EC50 of less than 100 nM, “B” indicates an EC50 range from 100 nM to 500 nM; “C” indicates an EC50 range from 500 nM to 2 μM; and “D” indicates an EC50 greater than 2 μM.
# [3] = molecular target: T2, TRPML3 (Homo sapiens, UniProt Q8TDD5); test: Fluorescent TRPML3 assay (performed as for TRPML1, substituting the TRPML3 subtype)
# T2 construct: expressed in transfected cells
# T2 sequence (Q8TDD5 1-553): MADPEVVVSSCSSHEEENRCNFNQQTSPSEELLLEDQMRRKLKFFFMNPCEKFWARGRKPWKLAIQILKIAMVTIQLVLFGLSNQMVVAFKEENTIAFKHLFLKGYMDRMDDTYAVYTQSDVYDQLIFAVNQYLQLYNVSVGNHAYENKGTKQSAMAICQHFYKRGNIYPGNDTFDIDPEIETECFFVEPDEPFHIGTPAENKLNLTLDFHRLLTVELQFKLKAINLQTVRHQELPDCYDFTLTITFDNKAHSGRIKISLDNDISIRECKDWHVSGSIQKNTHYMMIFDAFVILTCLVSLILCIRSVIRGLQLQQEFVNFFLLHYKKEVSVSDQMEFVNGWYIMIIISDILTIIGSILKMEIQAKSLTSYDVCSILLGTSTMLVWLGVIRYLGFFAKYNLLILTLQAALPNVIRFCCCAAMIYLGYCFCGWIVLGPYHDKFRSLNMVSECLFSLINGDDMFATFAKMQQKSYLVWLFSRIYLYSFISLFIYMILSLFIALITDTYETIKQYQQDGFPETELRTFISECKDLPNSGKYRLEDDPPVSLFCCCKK
# Description: as §1, §2, §3, §4, §5, §6, §7
# Sequence of TRPML1 (Q9GZU1 whole entry L15A/L16A/L577A/L578A, form open): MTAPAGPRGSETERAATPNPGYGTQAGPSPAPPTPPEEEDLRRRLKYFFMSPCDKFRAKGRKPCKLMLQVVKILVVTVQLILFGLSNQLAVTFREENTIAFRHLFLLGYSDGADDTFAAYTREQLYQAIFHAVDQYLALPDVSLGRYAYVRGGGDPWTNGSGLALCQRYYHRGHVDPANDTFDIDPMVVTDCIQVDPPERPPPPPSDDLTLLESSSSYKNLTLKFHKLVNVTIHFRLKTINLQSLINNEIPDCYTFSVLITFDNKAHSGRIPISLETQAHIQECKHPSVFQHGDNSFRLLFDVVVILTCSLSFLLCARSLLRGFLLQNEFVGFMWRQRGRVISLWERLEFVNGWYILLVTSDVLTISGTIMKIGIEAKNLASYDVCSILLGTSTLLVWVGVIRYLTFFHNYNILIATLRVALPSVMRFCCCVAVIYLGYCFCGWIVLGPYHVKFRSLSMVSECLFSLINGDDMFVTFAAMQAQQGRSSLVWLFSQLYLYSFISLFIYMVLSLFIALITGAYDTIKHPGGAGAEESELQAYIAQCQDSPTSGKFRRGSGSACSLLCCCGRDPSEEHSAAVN
SMILES,EC50 ([1]; fluorescent calcium assay) [nM],EC50 ([2]; fluorescent calcium assay) [nM],EC50 ([3]; fluorescent calcium assay) [nM],EC50 [1] [nM],EC50 [2] [nM],EC50 [3] [nM]
"CC(C)(C)OC(=O)N1CCN(c2ncnc3c2c(C2CC2)cn3-c2cc(F)cc(F)c2)C[C@H]1CF (single isomer, unassigned) [Compound 269]",100 to 500,500 to 2000,< 100,,,
"CC(C)(C)OC(=O)N1CCN(c2ncnc3c2c(C2CC2)cn3-c2cc(F)cc(F)c2)C[C@@H]1CF (single isomer, unassigned) [Compound 270]",500 to 2000,> 2000,100 to 500,,,
"CC(C)(C)OC(=O)N1CCN(c2ncnc3c2c(C2CC2)cn3-c2cc(F)cc(F)c2)C[C@H]1C(F)F (single isomer, unassigned) [Compound 314]",500 to 2000,> 2000,500 to 2000,,,
"CC(C)(C)OC(=O)N1CCN(c2ncnc3c2c(C2CC2)cn3-c2cc(C#N)ccn2)[C@@H]2C[C@@H]21 (single isomer, unassigned) [Compound 408]",100 to 500,100 to 500,< 100,,,
"CC(C)(C)OC(=O)N1CCN(c2ncnc3c2c(C2CC2)cn3-c2cc(C#N)ccn2)[C@H]2C[C@H]21 (single isomer, unassigned) [Compound 409]",< 100,100 to 500,< 100,,,
"CC(C)(C)OC(=O)N1CCN(c2ncnc3c2c(-c2ccccn2)cn3-c2cccc(Cl)c2)CC1 [Compound 101, tert-butyl 4-(7-(3-chlorophenyl)-5-(pyridin-2-yl)-7H-pyrrolo[2,3-d]pyrimidin-4-yl)piperazine-1-carboxylate]",100 to 500,100 to 500,< 100,,,
"CC(C)(C)OC(=O)N1CCN(c2ncnc3c2c(-c2cccnc2)cn3-c2cccc(Cl)c2)CC1 [Compound 102, tert-butyl 4-(7-(3-chlorophenyl)-5-(pyridin-3-yl)-7H-pyrrolo [2,3-d]pyrimidin-4-yl)piperazine-1-carboxylate]",< 100,100 to 500,< 100,,,
"COc1cncc(-n2cc(-c3ccccc3F)c3c(N4CCN(C(=O)OC(C)(C)C)CC4)ncnc32)c1 [Compound 103, tert-butyl 4-(5-(2-fluorophenyl)-7-(5-methoxypyridin-3-yl)-7H-pyrrolo[2,3-d]pyrimidin-4-yl)piperazine-1-carboxylate]",100 to 500,500 to 2000,100 to 500,,,
"COc1cncc(-n2cc(C3CC3)c3c(N4CCN(C(=O)OC(C)(C)C)CC4)ncnc32)c1 [Compound 104, tert-butyl 4-(5-cyclopropyl-7-(5-methoxypyridin-3-yl)-7H-pyrrolo[2,3-d]pyrimidin-4-yl)piperazine-1-carboxylate]",500 to 2000,> 2000,100 to 500,,,
"COc1cncc(-n2cc(-c3ccccc3F)c3c(N4CCN(C(=O)OC(C)(C)C)C[C@@H]4C)ncnc32)c1 [Compound 105, tert-butyl (S)-4-(5-(2-fluorophenyl)-7-(5-methoxypyridin-3-yl)-7H-pyrrolo[2,3-d]pyrimidin-4-yl)-3-methylpiperazine-1-carboxylate]",500 to 2000,> 2000,500 to 2000,,,
"COc1cncc(-n2cc(C3CC3)c3c(N4CCN(C(=O)OC(C)(C)C)C[C@@H]4C)ncnc32)c1 [Compound 106, tert-butyl (S)-4-(5-cyclopropyl-7-(5-methoxypyridin-3-yl)-7H-pyrrolo[2,3-d]pyrimidin-4-yl)-3-methylpiperazine-1-carboxylate]",100 to 500,500 to 2000,100 to 500,,,
"C[C@H]1CN(C(=O)OC(C)(C)C)CCN1c1ncnc2c1c(-c1ccccc1)cn2-c1cc(C#N)ccn1 [Compound 320, tert-butyl (S)-4-(7-(4-cyanopyridin-2-yl)-5-phenyl-7H-pyrrolo[2,3-d]pyrimidin-4-yl)-3-methylpiperazine-1-carboxylate]",< 100,100 to 500,,,,
"COC(=O)N1CCN(c2ncnc3c2c(-c2ccccc2F)cn3-c2cc(C#N)ccn2)[C@@H](C)C1 [Compound 351, methyl (S)-4-(7-(4-cyanopyridin-2-yl)-5-(2-fluorophenyl)-7H-pyrrolo[2,3-d]pyrimidin-4-yl)-3-methylpiperazine-1-carboxylate]",< 100,500 to 2000,,,,
"Cc1cn(-c2cncnc2)c2ncnc(N3CCN(C(=O)OC(C)(C)C)C[C@@H]3C)c12 [Compound 691, tert-butyl (S)-3-methyl-4-(5-methyl-7-(pyrimidin-5-yl)-7H-pyrrolo[2,3-d]pyrimidin-4-yl)piperazine-1-carboxylate]",,,,500 to 2000,,500 to 2000

# The next lines start with the values.
EC50 ([1]; fluorescent calcium assay) [nM],EC50 ([2]; fluorescent calcium assay) [nM],EC50 ([3]; fluorescent calcium assay) [nM],EC50 [1] [nM],EC50 [2] [nM],EC50 [3] [nM],SMILES
100 to 500,500 to 2000,100 to 500,,,,"Cc1cncc(-n2cc(C3CC3)c3c(N4CCN(C(=O)OC(C)(C)C)[C@@H](C)C4)ncnc32)c1 (single isomer, unassigned) [Compound 174]"
500 to 2000,> 2000,500 to 2000,,,,"Cc1cncc(-n2cc(C3CC3)c3c(N4CCN(C(=O)OC(C)(C)C)[C@H](C)C4)ncnc32)c1 (single isomer, unassigned) [Compound 175]"
,,,100 to 500,500 to 2000,100 to 500,"C[C@@H]1CN(c2ncnc3c2c(C(F)(F)F)cn3[C@@H]2CCCC(F)(F)C2)[C@@H](C)CN1C(=O)OC(C)(C)C (single isomer, unassigned) [Compound 714]"
,,,500 to 2000,,500 to 2000,C[C@@H]1CN(c2ncnc3c2c(C(F)F)cn3C2CCC(C#N)C2)[C@@H](C)CN1C(=O)OC(C)(C)C (stereo partly drawn) [Compound 634]
,,,> 2000,,> 2000,"Cc1cn(-c2cncnc2)c2ncnc(N3C[C@@H](C)N(C(=O)OC(C)(C)C)C[C@@H]3C)c12 [Compound 674, tert-butyl (2R,5S)-2,5-dimethyl-4-(5-methyl-7-(pyrimidin-5-yl)-7H-pyrrolo[2,3-d]pyrimidin-4-yl)piperazine-1-carboxylate]"
,,,100 to 500,,< 100,"Cc1cn(-c2cncc(C#N)c2)c2ncnc(N3CCN(C(=O)OC(C)(C)C)C[C@@H]3C)c12 [Compound 694, tert-butyl (S)-4-(7-(5-cyanopyridin-3-yl)-5-methyl-7H-pyrrolo[2,3-d]pyrimidin-4-yl)-3-methylpiperazine-1-carboxylate]"
